According to ChEMBL document CHEMBL3885881, “DrugMatrix”:

Species: Rattus norvegicus
Assay: DrugMatrix - Regimen: Daily Repeat
Assay type: toxicity, organism-based, Sprague-Dawley
Parameters: regimen Daily Repeat, gender Male, age 6-8 weeks
Details: in vivo, po, route oral GAVAGE, vehicle .5 % CMC; for ABSOLUTE BASOPHIL / ABSOLUTE EOSINOPHIL / ABSOLUTE LYMPHOCYTE / ABSOLUTE MONOCYTE / ABSOLUTE SEGMENTED NEUTROPHIL / BASOPHIL / EOSINOPHIL / ERYTHROCYTE COUNT / HEMATOCRIT / HEMOGLOBIN / LEUKOCYTE COUNT / LYMPHOCYTE / MEAN CORPUSCULAR HEMOGLOBIN / MEAN CORPUSCULAR HEMOGLOBIN CONCENTRATION / MEAN CORPUSCULAR VOLUME / MONOCYTE / NEUTROPHIL / NUCLEATED RED BLOOD CELLS / PLATELET COUNT: tissue Blood; for ALANINE AMINOTRANSFERASE / ALBUMIN / ALKALINE PHOSPHATASE / ASPARTATE AMINOTRANSFERASE / BLOOD UREA NITROGEN / CARBON DIOXIDE / CHLORIDE / CHOLESTEROL / CREATINE PHOSPHOKINASE / CREATININE / GLUCOSE / LACTATE DEHYDROGENASE / LIPASE / PHOSPHORUS / POTASSIUM / SODIUM / TOTAL BILIRUBIN / TOTAL PROTEIN / URIC ACID: tissue Plasma
[1] = 0 mg/kg, 72 h, dose level Control, time 3 day
[2] = 0 mg/kg, 120 h, dose level Control, time 5 day
[3] = 200 mg/kg, 72 h, dose level Low, time 3 day

Cc1cnc(C(=O)NCCc2ccc(S(=O)(=O)NC(=O)NC3CCCCC3)cc2)cn1 [GLIPIZIDE]
ABSOLUTE BASOPHIL [1]: 0 CELLS/uL | ABSOLUTE EOSINOPHIL [1]: 0 CELLS/uL | ABSOLUTE LYMPHOCYTE [1]: 12191.17 CELLS/uL | ABSOLUTE MONOCYTE [1]: 183.17 CELLS/uL | ABSOLUTE SEGMENTED NEUTROPHIL [1]: 1192.33 CELLS/uL | BASOPHIL [1]: 0% | EOSINOPHIL [1]: 0% | ERYTHROCYTE COUNT [1]: 5.51 x10E6/uL | HEMATOCRIT [1]: 35.45% | HEMOGLOBIN [1]: 13.82 G/DL | LEUKOCYTE COUNT [1]: 13.57 x10E3/uL | LYMPHOCYTE [1]: 89.83% | MEAN CORPUSCULAR HEMOGLOBIN [1]: 25.1 pg | MEAN CORPUSCULAR HEMOGLOBIN CONCENTRATION [1]: 38.98 G/DL | MEAN CORPUSCULAR VOLUME [1]: 64.42 fL | MONOCYTE [1]: 1.33% | NEUTROPHIL [1]: 8.83% | NUCLEATED RED BLOOD CELLS [1]: 0 /100WBC | PLATELET COUNT [1]: 1118.17 x10E3/uL | ALANINE AMINOTRANSFERASE [1]: 55 u/L | ALBUMIN [1]: 4.15 G/DL | ALKALINE PHOSPHATASE [1]: 449.5 u/L | ASPARTATE AMINOTRANSFERASE [1]: 112.83 u/L | BLOOD UREA NITROGEN [1]: 17.33 mg/dL | CARBON DIOXIDE [1]: 29.5 mmol/L | CHLORIDE [1]: 101 MEQ/L | CHOLESTEROL [1]: 70 mg/dL | CREATINE PHOSPHOKINASE [1]: 1325.83 u/L | CREATININE [1]: 0.18 mg/dL | GLUCOSE [1]: 171.5 mg/dL | LACTATE DEHYDROGENASE [1]: 386 u/L | LIPASE [1]: 10 u/L | PHOSPHORUS [1]: 11.57 mg/dL | POTASSIUM [1]: 6.21 MEQ/L | SODIUM [1]: 141.65 MEQ/L | TOTAL BILIRUBIN [1]: 0.15 mg/dL | TOTAL PROTEIN [1]: 5.75 G/DL | URIC ACID [1]: 1.28 mg/dL | ABSOLUTE BASOPHIL [2]: 0 CELLS/uL | ABSOLUTE EOSINOPHIL [2]: 138.17 CELLS/uL | ABSOLUTE LYMPHOCYTE [2]: 13283.17 CELLS/uL | ABSOLUTE MONOCYTE [2]: 303.83 CELLS/uL | ABSOLUTE SEGMENTED NEUTROPHIL [2]: 1308.17 CELLS/uL | BASOPHIL [2]: 0% | EOSINOPHIL [2]: 1% | ERYTHROCYTE COUNT [2]: 5.32 x10E6/uL | HEMATOCRIT [2]: 33.8% | HEMOGLOBIN [2]: 13.63 G/DL | LEUKOCYTE COUNT [2]: 15.03 x10E3/uL | LYMPHOCYTE [2]: 88.33% | MEAN CORPUSCULAR HEMOGLOBIN [2]: 25.68 pg | MEAN CORPUSCULAR HEMOGLOBIN CONCENTRATION [2]: 40.35 G/DL | MEAN CORPUSCULAR VOLUME [2]: 63.67 fL | MONOCYTE [2]: 1.83% | NEUTROPHIL [2]: 8.83% | NUCLEATED RED BLOOD CELLS [2]: 0 /100WBC | PLATELET COUNT [2]: 1097.5 x10E3/uL | ALANINE AMINOTRANSFERASE [2]: 54.5 u/L | ALBUMIN [2]: 4.27 G/DL | ALKALINE PHOSPHATASE [2]: 337 u/L | ASPARTATE AMINOTRANSFERASE [2]: 94.67 u/L | BLOOD UREA NITROGEN [2]: 17 mg/dL | CARBON DIOXIDE [2]: 28.33 mmol/L | CHLORIDE [2]: 101.5 MEQ/L | CHOLESTEROL [2]: 71.33 mg/dL | CREATINE PHOSPHOKINASE [2]: 628.17 u/L | CREATININE [2]: 0.19 mg/dL | GLUCOSE [2]: 177.83 mg/dL | LACTATE DEHYDROGENASE [2]: 500.5 u/L | LIPASE [2]: 9.5 u/L | PHOSPHORUS [2]: 12.3 mg/dL | POTASSIUM [2]: 5.63 MEQ/L | SODIUM [2]: 143.03 MEQ/L | TOTAL BILIRUBIN [2]: 0.2 mg/dL | TOTAL PROTEIN [2]: 6.02 G/DL | URIC ACID [2]: 1.5 mg/dL | ABSOLUTE BASOPHIL [3]: 0 CELLS/uL | ABSOLUTE EOSINOPHIL [3]: 38 CELLS/uL | ABSOLUTE LYMPHOCYTE [3]: 11413.33 CELLS/uL | ABSOLUTE MONOCYTE [3]: 0 CELLS/uL | ABSOLUTE SEGMENTED NEUTROPHIL [3]: 882 CELLS/uL | BASOPHIL [3]: 0% | EOSINOPHIL [3]: 0.33% | ERYTHROCYTE COUNT [3]: 5.65 x10E6/uL | HEMATOCRIT [3]: 34.83% | HEMOGLOBIN [3]: 13.93 G/DL | LEUKOCYTE COUNT [3]: 12.33 x10E3/uL | LYMPHOCYTE [3]: 92.67% | MEAN CORPUSCULAR HEMOGLOBIN [3]: 24.63 pg | MEAN CORPUSCULAR HEMOGLOBIN CONCENTRATION [3]: 40 G/DL | MEAN CORPUSCULAR VOLUME [3]: 61.63 fL | MONOCYTE [3]: 0% | NEUTROPHIL [3]: 7% | NUCLEATED RED BLOOD CELLS [3]: 0 /100WBC | PLATELET COUNT [3]: 1245 x10E3/uL | ALANINE AMINOTRANSFERASE [3]: 51.33 u/L | ALBUMIN [3]: 4.23 G/DL | ALKALINE PHOSPHATASE [3]: 334.33 u/L | ASPARTATE AMINOTRANSFERASE [3]: 84.33 u/L | BLOOD UREA NITROGEN [3]: 15.33 mg/dL | CARBON DIOXIDE [3]: 27.33 mmol/L | CHLORIDE [3]: 103.33 MEQ/L | CHOLESTEROL [3]: 74.33 mg/dL | CREATINE PHOSPHOKINASE [3]: 335 u/L | CREATININE [3]: 0.13 mg/dL | GLUCOSE [3]: 133.67 mg/dL | LACTATE DEHYDROGENASE [3]: 97.33 u/L | LIPASE [3]: 10.33 u/L | PHOSPHORUS [3]: 11.7 mg/dL | POTASSIUM [3]: 5.79 MEQ/L | SODIUM [3]: 143.47 MEQ/L | TOTAL BILIRUBIN [3]: 0.13 mg/dL | TOTAL PROTEIN [3]: 5.77 G/DL | URIC ACID [3]: 1.43 mg/dL
